The values below come from the SangsterLogP compilation.

Assay in data set [1]: not given
The source holds these as a separate data set.

Data set [2] is described as follows: method code SF-RC, from DOI: 10.1021/jm701375u, PMID: 18307287. The conditions noted are these: pH 7.4.
Data set [3] in a line: method code SF-HPLC, from DOI: 10.1021/jf0483669, PMID: 15913295. Particulars: pH 7.4.
Assay in data set [4]: not given
The source holds these as a separate data set.

The nature of data set [5]: method code SF-HPLC, from DOI: 10.1016/j.apradiso.2007.04.014, PMID: 17574425. Particulars: pH 7.4.
The nature of data set [6]: method code SF, from DOI: 10.1023/a:1012119527214, PMID: 9453056. Particulars: pH 12.5.
Data set [7] in a line: method code SF-AS, from DOI: 10.1016/0223-5234(94)90120-1. The conditions noted are these: pH 7.4.
Data set [8] is described as follows: method code SF-AS, from DOI: 10.1002/chin.199416148, PMID: 8117185.
The nature of data set [9]: method code SF, from DOI: 10.1002/jps.2600830715, PMID: 7965680.
Data set [10] can be described thus: method code SF-AS, from DOI: 10.1021/jm9800301, PMID: 9748357. Particulars: pH 7.4.
A short description of data set [11]: method code SF-HPLC, from DOI: 10.1023/a:1015828802490, PMID: 2308896.
Data set [12] can be described thus: method code SF-HPLC, from PMID: 1854437. The conditions noted are these: pH 7.4.
Data set [13] in a line: method code SF-AS, from DOI: 10.1248/cpb.42.1084, PMID: 8069960.
A short description of data set [14]: method code SF-HPLC, from DOI: 10.1002/ps.2780440103. Particulars: pH 2.0.
The nature of data set [15]: method code SF-HPLC, from DOI: 10.1006/pest.1998.2384.
Data set [16] in a line: method code SF, from DOI: 10.1016/s0960-894x(04)00268-9, PMID: 15109667. The conditions noted are these: pH 7.4.
Data set [17] is described as follows: method code SF-AS, from DOI: 10.3390/molecules16097565, PMID: 21894089.
The nature of data set [18]: method code …, from Wiggins, H.; Karcher, A.; Michael Wilson, J.; Robb, I. (2008). Determining Octanol/Water Partitioning Coefficients for Industrial Surfactants. Proc. 15th Annual International Petroleum & Biofuels ….
The nature of data set [19]: method code SF-HPLC, from PMID: 2780588.
The nature of data set [20]: method code SF-HPLC, from DOI: 10.1021/js950346l, PMID: 9109056.
Assay in data set [21]: not given
This is another data set of the same source.

The nature of data set [22]: method code SF-AS, from M. Kuchar, J. Tomkova, V. Rejholec, & O. Roubinek. (1992). Some problems of the chromatographic evaluation of lipophicity. In Kuchar, M. (Ed.) QSAR in Design of Bioactive Compounds (pp. 65-81). Prous …. Particulars: pH 3.4.
Data set [23] is described as follows: method code SF-RC, from DOI: 10.1016/j.bmc.2013.10.046, PMID: 24262882. Particulars: pH 7.4.
A short description of data set [24]: method code SF, from DOI: 10.1016/s0021-9673(03)00534-x, PMID: 12800922. Particulars: pH 11.0.
Assay in data set [25]: not given
The source holds these as a separate data set.

Data set [26] in a line: method code SF, from DOI: 10.1080/10826070801924857.
Assay in data set [27]: not given
This is another data set of the same source.

Assay in data set [28]: not given
This is another data set of the same source.

The nature of data set [29]: method code SF, from DOI: 10.1016/s0223-5234(99)80097-x. Particulars: pH 7.5.

Regarding `NC(=O)C(CCN1CCCCC1)c1ccccc1Cl` (centres undefined), the lipophilicity (logP) (as a rule, a log measure of how a compound divides between an organic and an aqueous phase) worked out at 2.46.
In the case of `CC1(C)Oc2ccc(C#N)cc2C(N2CCCC2=O)C1O` (centres undefined), the logP in data set [1] was 2.1.
With `Oc1ccccc1N1CCN(Cc2cnn3ccccc23)CC1`, the logD (as a rule, lipophilicity at a set pH, counting ionised and neutral species) in [2] came out at 2.15.
For `Oc1ccc([C@H]2COc3cc(O)ccc3C2)cc1`, the log distribution coefficient (logD) in data set [3] was found to be 3.2.
Take `CNC12CC(CN)CCC1CCc1ccccc12` (centres undefined): the logP in data set [4] stood at 2.
Molecule `O=C(CCl)Nc1ccc2ncnc(Nc3cc(Cl)c(Cl)cc3F)c2c1` yielded a logD in data set [5] of 4.12.
In turn, `CCCN(CC)C(CC)C(=O)Nc1c(C)cccc1C` (centres undefined) yielded a logD in [6] of 3.22.
Take `S=C1SCN(Cc2ccccc2)CN1Cc1ccccc1`: the logD in data set [7] was found to be 4.9.
In [5], `O=C(CCl)Nc1cc2c(Nc3cc(Cl)c(Cl)cc3F)ncnc2cc1OCCOCCOCCOCCOCCOCCF` registered a pH-dependent lipophilicity (logD) of 4.75.
`O=C(CCN1CCOCC1)CN1C(=O)C2CC=CCC2C1=O` (centres undefined) showed a logP in data set [8] of 0.56.
`CC1(C)CC(NC(=O)C(Cc2ccccc2)NC(=O)N(CCCl)N=O)CC(C)(C)N1O` (centres undefined) gave a logP in data set [9] of 2.3.
For `COc1ccc(CNC(=O)C(=O)c2c[nH]c3ccc([N+](=O)[O-])cc23)cc1`, the pH-dependent lipophilicity (logD) in data set [10] stood at 2.17.
The molecule `COc1c(C)c2c(c(O)c1C/C=C(\C)CCC(=O)O)C(=O)OC2` showed a logD in [11] (pH 2.0) of 2.76.
Consider `CC(C)C(NC(=O)N(CCCl)N=O)C(=O)NC1CC(C)(C)N(O)C(C)(C)C1` (centres undefined), for which the logP in [9] is 2.09.
The molecule `CCCCCCOC(=O)n1cnc(C)c1CSCCNC(=NC#N)NC` gave a logD in data set [12] of 3.1.
As to `COc1ccc2[nH]c3c4ccc(Cl)cc4ncc3c2c1`, in data set [13], the logP stood at 4.49.
With `COc1ccc2[nH]c3c(c2c1)CCNc1cc(Cl)ccc1-3`, the logP in [13] came to 4.24.
The molecule `COC(=O)[C@H]1O[C@@H](Oc2ccc3ccc(=O)oc3c2)[C@H](O)[C@@H](O)[C@@H]1O` gave a logD in [14] of -1.08.
For `O=[N+]([O-])N=C1N(Cc2ccccc2)CCN1Cc1ccc(Cl)nc1`, in data set [15], the logP was found to be 1.49.
`CSC(=NOC(=O)N(C)COC1OC(C(=O)O)C(O)C(O)C1O)C(=O)N(C)C` (centres undefined) displayed a logD in data set [14] of -1.98.
For the molecule `CC(=O)OC(CC#CCS(=O)(=O)c1ccccc1)Cn1ccnc1[N+](=O)[O-]` (centres undefined), the logD in [16] is 1.35.
The molecule `CC(=O)OC(CC#CCS(=O)(=O)c1ccc([N+](=O)[O-])cc1)Cn1ccnc1[N+](=O)[O-]` (centres undefined) returned a logD in data set [16] of 1.18.
On to `C[C@H](c1nc2ccc(F)cc2s1)N1C(=O)C(=O)N(c2ccc(Cl)cc2)C1=O`, for which the logP in [17] is 0.41.
For the molecule `CCCCOC(=O)n1cnc(CSCCNC(=NC#N)NC)c1C`, the logD in data set [12] stood at 2.15.
Molecule `CCCCCCCCCCCCOCCOCCOCCOCCOCCOCCO` came in with a logP in data set [18] of 4.81.
With `CCCCCCCCOCCOCCOCCOCCO`, the logP in data set [18] was determined as 2.68.
In the case of `CCCCCCCCNC(=O)Cc1ccc(O)c(OC)c1`, the logP in data set [19] is 2.94.
As for `CN1C(C(=O)Nc2ccccn2)=C(O)c2ccccc2S1(=O)=O`, in [20], the lipophilicity (logP) amounted to 1.86.
For `O=C(NCC(F)(F)F)NS(=O)(=O)c1cnccc1NC1CCCCCC1`, the logP in [21] was 0.95.
In the case of `CCCCCCN1CCN(Cc2ccc(Cl)nc2)C1=N[N+](=O)[O-]`, the lipophilicity (logP) in data set [15] was 2.2.
The molecule `O=C(O)CCc1ccc(OCc2ccccc2)cc1` showed a logD in data set [22] of 3.31.
Consider `S=C1SCN(Cc2ccccc2)CN1CCc1ccccc1`, for which the logD in data set [7] amounted to 5.
`COC(=O)C1C(c2ccc(I)cc2)C2CCC1N2CC=CI` (centres undefined) gave a logD in data set [23] of 5.29.
In the case of `CC(C)N(CCC(CCN1CCCCC1)(C(N)=O)c1ccccc1Cl)C(C)C` (centres undefined), the logP is 4.78.
For `O=C(NCc1ccc(F)cc1)C(=O)c1c[nH]c2ccccc12`, the logD in data set [10] is 2.88.
Molecule `O=C(NC1CCCCCC1)NS(=O)(=O)c1cnccc1Nc1cccc(C(F)(F)F)c1` registered a logP in data set [21] of 2.02.
For `O=C(O)COC(=O)Cc1ccccc1Nc1c(Cl)cccc1Cl`, the logP in data set [20] was 2.7.
In turn, `CC(C)(C)NC[C@H](O)COc1ccccc1C1CCCC1` came in with a log distribution coefficient (logD) in [24] of 3.61.
`CC(C)(O)c1cc(Cl)c(Nc2nc3ccncc3c3c(=O)[nH]ccc23)c(Cl)c1` came in with a logP in [25] of 1.34.
As to `CCCCCCCCOC(=O)OC[C@@H]1O[C@H](n2ccc(N)nc2=O)CS1`, in data set [26], the logP amounted to 1.72.
On to `Brc1cccc(N2CCN(Cc3cc4ccccn4n3)CC2)n1`, for which the logD in [2] was found to be 1.78.
In [27], `Fc1ccccc1C1=NCC(=S)N(CC(F)(F)F)c2ccc(Cl)cc21` yielded a logP of 4.03.
Molecule `O=C(CCN1CCCC1)CN1C(=O)C2CC=CCC2C1=O` (centres undefined) had a lipophilicity (logP) in data set [8] of 1.11.
The molecule `NS(=O)(=O)c1cc(Cl)c(Nc2nc3ccncc3c3c(=O)[nH]ccc23)c(Cl)c1` came in with a lipophilicity (logP) in [25] of 1.17.
As for `O=c1c(-c2ccc(O)cc2)coc2cc(O[C@@H]3O[C@H](CO)[C@@H](O)[C@H](O)[C@H]3O)ccc12`, in data set [3], the logD was found to be 0.32.
Molecule `CC(CC(=O)O)c1ccc(OCc2ccccc2)cc1` (centres undefined) displayed a logD in data set [22] of 3.58.
For the molecule `CSc1cccc(N(C)C(=N)Nc2cc(SC)ccc2Cl)c1`, the logP in data set [28] was 2.68.
Consider `Cc1c(O)c(=O)ccn1CCOC(=O)c1ccccc1`, for which the logD in data set [29] turned out to be 1.04.
For `CC(C)(C)NCC(O)COc1cccc2c1CCC(=O)N2` (centres undefined), in data set [24], the logD is 1.49.
On to `O=C1CN=C(c2ccccc2F)c2cc(Cl)ccc2N1CC(F)(F)F`, for which, in [27], the logP turned out to be 3.36.
As to `CCCCCCCCOC(=O)Cc1ccc(O)c(OC)c1`, in data set [19], the logP is 4.04.
In data set [6], `CCN(CC)CC(=O)Nc1c(C)cc(C)cc1C` gave a logD of 2.73.
Consider `CC(=O)CC(c1ccccc1)c1c(O)c2ccccc2oc1=O` (centres undefined), for which the logP in [1] came to 2.4.
`COc1c(C)c2c(c(OC(C)=O)c1C/C=C(\C)CCC(=O)OCC1COC(C)(C)O1)C(=O)OC2` (centres undefined) registered a logD in data set [11] (pH 7.4) of 2.87.
`CNC12CCCCC1CC(C)c1ccccc12` (centres undefined): the logP in data set [4] amounted to 3.96.
Take `CCCCCCOC(=O)OC[C@@H]1O[C@H](n2ccc(N)nc2=O)CS1`: the logP in data set [26] amounted to 1.57.
As to `O=C(OCCF)C1C(c2ccc(I)cc2)C2CCC1N2CC=CI` (centres undefined), the logD in data set [23] stood at 5.39.
Take `CCc1c(O)c(=O)ccn1CCOC(=O)c1ccccc1`: the logD in [29] was 1.52.
On to `CCc1cccc(N(C)C(=N)Nc2cc(SC)ccc2Cl)c1`, for which the logP in data set [28] was 3.
